Reference: the supplement of paper PMC10307832

How the values were obtained:
CX-5461 + AZD7762 = compound: Cc1cnc(CNC(=O)c2c(=O)c3ccc(N4CCCN(C)CC4)nc3n3c2sc2ccccc23)cn1 [CX-5461] + NC(=O)Nc1cc(-c2cccc(F)c2)sc1C(=O)N[C@H]1CCCNC1 [AZD7762] (partner 0.2 µM); assay: relative viability (nuclei count vs DMSO), 5 days (fraction); higher = more cells survive
Outline: (§1)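 Lung cancer cell lines in 1536-well plates got either a single drug or a fixed anchor-drug dose together with five library-drug doses (not always all listed) in √10 steps, by pin tool, on the day after seeding. Nuclei were counted after 5 days, and relative viability is the treated-to-vehicle ratio of nuclei counts. Values are medians of duplicate plates.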

CX-5461 + Trametinib = compound: Cc1cnc(CNC(=O)c2c(=O)c3ccc(N4CCCN(C)CC4)nc3n3c2sc2ccccc23)cn1 [CX-5461] + CC(=O)Nc1cccc(-n2c(=O)n(C3CC3)c(=O)c3c(Nc4ccc(I)cc4F)n(C)c(=O)c(C)c32)c1 [Trametinib] (partner 0.02 µM); assay: as above
Outline: as §1

Row | Cell Line | relative viability (CX-5461 + AZD7762; first compound 0.01 µM) | relative viability (CX-5461 + AZD7762; first compound 0.03162 µM) | relative viability (CX-5461 + AZD7762; first compound 0.1 µM) | relative viability (CX-5461 + AZD7762; first compound 0.3162 µM) | relative viability (CX-5461 + AZD7762; first compound 1 µM) | relative viability (CX-5461 + Trametinib; first compound 0.01 µM) | relative viability (CX-5461 + Trametinib; first compound 0.03162 µM) | relative viability (CX-5461 + Trametinib; first compound 0.1 µM) | relative viability (CX-5461 + Trametinib; first compound 0.3162 µM) | relative viability (CX-5461 + Trametinib; first compound 1 µM)
1 | NCI-H650 | 1.03 | 1.01 | 0.727 | 1.05 | 0.623 | 1.06 | 0.938 | 0.991 | 1.05 | 0.911
2 | NCI-H661 | – | – | – | – | – | 0.647 | 0.621 | 0.544 | 0.432 | 0.376
3 | NCI-H727 | 0.48 | 0.709 | 0.473 | 0.648 | 0.566 | 0.375 | 0.389 | 0.4 | 0.356 | 0.379
4 | NCI-H838 | 0.971 | 0.941 | 1.01 | 0.698 | 0.696 | 0.555 | 0.555 | 0.539 | 0.328 | 0.482
5 | NCI-H1355 | 0.75 | 0.833 | 0.613 | 0.78 | 0.288 | 0.456 | 0.496 | 0.462 | 0.414 | 0.435
6 | NCI-H1395 | 0.377 | 0.328 | 0.382 | 0.384 | 0.337 | 1.09 | 0.821 | 1.07 | 0.741 | 0.71
7 | NCI-H1437 | 1.1 | 1.05 | 1.11 | 1.09 | 1.04 | 0.542 | 0.568 | 0.469 | 0.537 | 0.391
8 | NCI-H1648 | 0.647 | 0.785 | 0.655 | 0.771 | 0.592 | 0.47 | 0.514 | 0.488 | 0.534 | 0.509
9 | NCI-H1650 | – | – | – | – | – | 0.564 | 0.447 | 0.532 | 0.678 | 0.207
10 | NCI-H1651 | 0.48 | 0.491 | 0.328 | 0.588 | 0.143 | 0.824 | 0.791 | 0.87 | 0.79 | 0.778
11 | NCI-H1666 | 0.796 | 0.912 | 0.728 | 0.856 | 0.69 | 0.895 | 0.891 | 0.719 | 0.821 | 0.65
12 | NCI-H1703 | – | 0.11 | 0.104 | – | 0.107 | – | – | – | – | –
13 | NCI-H1734 | 0.583 | 0.602 | 0.317 | 0.327 | 0.286 | 0.716 | 0.781 | 0.788 | 0.599 | 0.711
14 | NCI-H1755 | 0.453 | 0.447 | 0.38 | 0.413 | 0.406 | 0.826 | 0.796 | 0.836 | 0.719 | 0.753
15 | NCI-H1792 | 0.838 | 0.677 | 0.5 | 0.667 | 0.0872 | 0.542 | 0.434 | 0.407 | 0.401 | 0.52
16 | NCI-H1793 | 0.61 | 0.44 | 0.313 | 0.391 | 0.168 | 0.386 | 0.519 | 0.364 | 0.411 | 0.353
17 | NCI-H1915 | 0.75 | 0.74 | 0.643 | 0.673 | 0.608 | 0.285 | 0.326 | 0.327 | 0.315 | 0.307
18 | NCI-H1944 | 0.444 | 0.512 | 0.358 | 0.269 | 0.195 | 0.47 | 0.406 | 0.419 | 0.314 | 0.448
19 | NCI-H1975 | 0.792 | 0.729 | 0.737 | 0.847 | 0.425 | 0.39 | 0.317 | 0.367 | 0.395 | 0.298

Row | Cell Line | relative viability (CX-5461 + AZD7762; first compound 0.01 µM) | relative viability (CX-5461 + AZD7762; first compound 0.03162 µM) | relative viability (CX-5461 + AZD7762; first compound 0.1 µM) | relative viability (CX-5461 + AZD7762; first compound 0.3162 µM) | relative viability (CX-5461 + AZD7762; first compound 1 µM) | relative viability (CX-5461 + Trametinib; first compound 0.01 µM) | relative viability (CX-5461 + Trametinib; first compound 0.03162 µM) | relative viability (CX-5461 + Trametinib; first compound 0.1 µM) | relative viability (CX-5461 + Trametinib; first compound 0.3162 µM) | relative viability (CX-5461 + Trametinib; first compound 1 µM)
20 | NCI-H1993 | 0.754 | 0.893 | 0.716 | 0.81 | 0.78 | 0.525 | 0.448 | 0.476 | 0.431 | 0.544
21 | NCI-H2009 | – | – | – | – | – | 0.341 | 0.271 | 0.286 | 0.301 | 0.243
22 | NCI-H2023 | – | – | – | – | – | 0.54 | 0.564 | – | 0.491 | 0.115
23 | NCI-H2085 | 1.05 | 1.03 | 0.918 | 1.04 | 0.719 | 0.516 | 0.564 | 0.464 | 0.527 | 0.615
24 | NCI-H2087 | 1.22 | 1.42 | 1.44 | 1.43 | 1.13 | 0.173 | 0.268 | 0.201 | 0.209 | 0.186
25 | NCI-H2126 | 1.1 | 1.05 | 0.981 | 1.05 | 0.903 | 0.591 | 0.628 | 0.591 | 0.557 | 0.526
26 | NCI-H2170 | 1.09 | 0.92 | 1.01 | 0.917 | 0.504 | 0.987 | 0.976 | 0.971 | 0.952 | 0.862
27 | NCI-H2228 | – | – | – | – | – | 0.553 | 0.489 | 0.418 | 0.432 | 0.236
28 | NCI-H2342 | 0.444 | 0.486 | 0.484 | 0.522 | 0.469 | 0.787 | 0.81 | 0.832 | 0.871 | 0.918
29 | NCI-H2347 | 0.825 | 0.716 | 0.688 | 0.767 | 0.605 | 0.273 | 0.279 | 0.292 | 0.272 | 0.223
30 | NCI-H2405 | 0.783 | 0.66 | 0.705 | 0.821 | 0.414 | 0.652 | 0.594 | 0.724 | 0.575 | 0.649
31 | NCI-H3122 | 1.06 | 0.946 | 0.936 | 1.03 | 0.607 | 0.21 | 0.213 | 0.205 | 0.248 | 0.186
32 | PC-3 [JPC-3] | 0.803 | – | 0.822 | 0.865 | 0.759 | 0.822 | – | 0.719 | 0.749 | 0.644
33 | PC-14 | 0.393 | 0.455 | 0.351 | 0.407 | 0.227 | 0.718 | 0.821 | 0.391 | 0.76 | 0.151
34 | RERF-LC-KJ | 1 | 0.897 | 0.954 | 0.807 | 0.901 | 0.853 | 0.908 | 0.694 | 0.89 | 0.644
35 | SK-LU-1 | – | – | – | – | – | 0.503 | 0.439 | 0.49 | 0.506 | 0.345
36 | SK-MES-1 | – | – | – | – | – | 0.641 | 0.595 | 0.562 | 0.533 | 0.44
37 | SW 900 | 0.657 | 0.627 | – | 0.544 | 0.311 | 0.664 | 0.84 | – | 0.548 | 0.829
38 | SW 1573 | – | – | – | – | – | 0.496 | 0.513 | 0.126 | 0.566 | 0.16
